Measurements: patent US20260216144A1, “TARGETING MB2 OF THE MYC ONCOGENE AND ITS INTERACTION WITH TRRAP IN CANCER” (priority 2019, published 2026)
pIC50: −log10 of the molar value.

What was measured:
MYC:TRRAP complexes = target: T1, MYC:TRRAP complexes (Homo sapiens, UniProt P01106+Q9Y4A5); assay: in vitro co-IP (compounds added directly to the purified MYC:TRRAP complex on pre-washed beads); format: binding; settings: in vitro by co-IP; normalized to protein levels; FIG. 26B; read-out: IC50 for the inhibition of MYC:TRRAP
T1 construct: immunoprecipitation experiments using endogenous full length MYC and TRRAP
Procedure: FIGS. 23A-23B show the results of co-IP assay experiments comparing the top 17 hits in immunoprecipitation experiments using endogenous full length MYC and TRRAP. In these experiments immunocomplexes were immunoprecipitated with anti-MYC beads in the presence of 25 μM of each of the 17 top compounds. Experiments were carried out in cells (compounds were added to the media of cells) (FIG. 23B) or in vitro (compounds were added directly to the purified complex on pre-washed beads) (FIG. 23A). Immunoprecipitation of TRRAP was normalized to the immunoprecipitation of MYC.
This represents an ^~10-fold increase in activity from NSC657456.

MYC:TRRAP interaction = MYC:TRRAP interaction (Homo sapiens, UniProt P01106+Q9Y4A5); assay: MYC:TRRAP in-cell luminescence complementation assay (NanoBiT; SmB-MYC 1-190 and TRRAP 2033-2283-LgB in HeLa cells); format: cell-based
Method in brief: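 HeLa cells transfected with SmB-MYC 1-190, TRRAP 2033-2283-LgB and EGFP reporter (6.7:60:33.3 ng plasmid per well); two days later treated 2 h with compounds at 25 μM. NanoBiT luminescence normalized to EGFP fluorescence; hits retested at 10 μM and counter-screened on LgB/SmB alone.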

Sequence of MYC:TRRAP interaction (P01106 16-205): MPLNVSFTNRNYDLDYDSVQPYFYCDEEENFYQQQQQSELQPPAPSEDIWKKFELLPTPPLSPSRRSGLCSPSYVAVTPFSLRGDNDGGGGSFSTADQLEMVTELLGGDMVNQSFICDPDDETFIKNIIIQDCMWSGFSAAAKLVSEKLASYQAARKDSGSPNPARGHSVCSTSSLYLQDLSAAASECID
Sequence of MYC:TRRAP interaction (Q9Y4A5 2051-2301): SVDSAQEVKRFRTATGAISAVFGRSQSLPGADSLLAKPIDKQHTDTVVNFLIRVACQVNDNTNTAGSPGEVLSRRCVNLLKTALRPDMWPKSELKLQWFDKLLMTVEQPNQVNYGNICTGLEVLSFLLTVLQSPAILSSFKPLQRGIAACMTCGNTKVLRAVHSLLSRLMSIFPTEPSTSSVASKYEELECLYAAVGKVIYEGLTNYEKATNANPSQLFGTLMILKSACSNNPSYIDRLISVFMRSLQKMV
T1 sequence (P01106 16-454): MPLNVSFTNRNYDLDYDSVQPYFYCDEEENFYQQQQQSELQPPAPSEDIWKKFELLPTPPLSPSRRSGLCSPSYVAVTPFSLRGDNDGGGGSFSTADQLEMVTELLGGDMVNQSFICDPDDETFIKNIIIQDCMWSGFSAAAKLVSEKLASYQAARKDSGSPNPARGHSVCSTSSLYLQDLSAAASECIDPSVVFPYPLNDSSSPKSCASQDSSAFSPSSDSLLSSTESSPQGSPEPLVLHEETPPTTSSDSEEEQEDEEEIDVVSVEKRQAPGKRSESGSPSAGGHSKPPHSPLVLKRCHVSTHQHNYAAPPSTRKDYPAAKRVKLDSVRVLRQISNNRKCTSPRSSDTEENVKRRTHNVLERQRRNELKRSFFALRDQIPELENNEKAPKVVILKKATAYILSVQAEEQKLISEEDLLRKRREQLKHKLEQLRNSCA
T1 sequence (Q9Y4A5 1-3830 isoform Q9Y4A5-2): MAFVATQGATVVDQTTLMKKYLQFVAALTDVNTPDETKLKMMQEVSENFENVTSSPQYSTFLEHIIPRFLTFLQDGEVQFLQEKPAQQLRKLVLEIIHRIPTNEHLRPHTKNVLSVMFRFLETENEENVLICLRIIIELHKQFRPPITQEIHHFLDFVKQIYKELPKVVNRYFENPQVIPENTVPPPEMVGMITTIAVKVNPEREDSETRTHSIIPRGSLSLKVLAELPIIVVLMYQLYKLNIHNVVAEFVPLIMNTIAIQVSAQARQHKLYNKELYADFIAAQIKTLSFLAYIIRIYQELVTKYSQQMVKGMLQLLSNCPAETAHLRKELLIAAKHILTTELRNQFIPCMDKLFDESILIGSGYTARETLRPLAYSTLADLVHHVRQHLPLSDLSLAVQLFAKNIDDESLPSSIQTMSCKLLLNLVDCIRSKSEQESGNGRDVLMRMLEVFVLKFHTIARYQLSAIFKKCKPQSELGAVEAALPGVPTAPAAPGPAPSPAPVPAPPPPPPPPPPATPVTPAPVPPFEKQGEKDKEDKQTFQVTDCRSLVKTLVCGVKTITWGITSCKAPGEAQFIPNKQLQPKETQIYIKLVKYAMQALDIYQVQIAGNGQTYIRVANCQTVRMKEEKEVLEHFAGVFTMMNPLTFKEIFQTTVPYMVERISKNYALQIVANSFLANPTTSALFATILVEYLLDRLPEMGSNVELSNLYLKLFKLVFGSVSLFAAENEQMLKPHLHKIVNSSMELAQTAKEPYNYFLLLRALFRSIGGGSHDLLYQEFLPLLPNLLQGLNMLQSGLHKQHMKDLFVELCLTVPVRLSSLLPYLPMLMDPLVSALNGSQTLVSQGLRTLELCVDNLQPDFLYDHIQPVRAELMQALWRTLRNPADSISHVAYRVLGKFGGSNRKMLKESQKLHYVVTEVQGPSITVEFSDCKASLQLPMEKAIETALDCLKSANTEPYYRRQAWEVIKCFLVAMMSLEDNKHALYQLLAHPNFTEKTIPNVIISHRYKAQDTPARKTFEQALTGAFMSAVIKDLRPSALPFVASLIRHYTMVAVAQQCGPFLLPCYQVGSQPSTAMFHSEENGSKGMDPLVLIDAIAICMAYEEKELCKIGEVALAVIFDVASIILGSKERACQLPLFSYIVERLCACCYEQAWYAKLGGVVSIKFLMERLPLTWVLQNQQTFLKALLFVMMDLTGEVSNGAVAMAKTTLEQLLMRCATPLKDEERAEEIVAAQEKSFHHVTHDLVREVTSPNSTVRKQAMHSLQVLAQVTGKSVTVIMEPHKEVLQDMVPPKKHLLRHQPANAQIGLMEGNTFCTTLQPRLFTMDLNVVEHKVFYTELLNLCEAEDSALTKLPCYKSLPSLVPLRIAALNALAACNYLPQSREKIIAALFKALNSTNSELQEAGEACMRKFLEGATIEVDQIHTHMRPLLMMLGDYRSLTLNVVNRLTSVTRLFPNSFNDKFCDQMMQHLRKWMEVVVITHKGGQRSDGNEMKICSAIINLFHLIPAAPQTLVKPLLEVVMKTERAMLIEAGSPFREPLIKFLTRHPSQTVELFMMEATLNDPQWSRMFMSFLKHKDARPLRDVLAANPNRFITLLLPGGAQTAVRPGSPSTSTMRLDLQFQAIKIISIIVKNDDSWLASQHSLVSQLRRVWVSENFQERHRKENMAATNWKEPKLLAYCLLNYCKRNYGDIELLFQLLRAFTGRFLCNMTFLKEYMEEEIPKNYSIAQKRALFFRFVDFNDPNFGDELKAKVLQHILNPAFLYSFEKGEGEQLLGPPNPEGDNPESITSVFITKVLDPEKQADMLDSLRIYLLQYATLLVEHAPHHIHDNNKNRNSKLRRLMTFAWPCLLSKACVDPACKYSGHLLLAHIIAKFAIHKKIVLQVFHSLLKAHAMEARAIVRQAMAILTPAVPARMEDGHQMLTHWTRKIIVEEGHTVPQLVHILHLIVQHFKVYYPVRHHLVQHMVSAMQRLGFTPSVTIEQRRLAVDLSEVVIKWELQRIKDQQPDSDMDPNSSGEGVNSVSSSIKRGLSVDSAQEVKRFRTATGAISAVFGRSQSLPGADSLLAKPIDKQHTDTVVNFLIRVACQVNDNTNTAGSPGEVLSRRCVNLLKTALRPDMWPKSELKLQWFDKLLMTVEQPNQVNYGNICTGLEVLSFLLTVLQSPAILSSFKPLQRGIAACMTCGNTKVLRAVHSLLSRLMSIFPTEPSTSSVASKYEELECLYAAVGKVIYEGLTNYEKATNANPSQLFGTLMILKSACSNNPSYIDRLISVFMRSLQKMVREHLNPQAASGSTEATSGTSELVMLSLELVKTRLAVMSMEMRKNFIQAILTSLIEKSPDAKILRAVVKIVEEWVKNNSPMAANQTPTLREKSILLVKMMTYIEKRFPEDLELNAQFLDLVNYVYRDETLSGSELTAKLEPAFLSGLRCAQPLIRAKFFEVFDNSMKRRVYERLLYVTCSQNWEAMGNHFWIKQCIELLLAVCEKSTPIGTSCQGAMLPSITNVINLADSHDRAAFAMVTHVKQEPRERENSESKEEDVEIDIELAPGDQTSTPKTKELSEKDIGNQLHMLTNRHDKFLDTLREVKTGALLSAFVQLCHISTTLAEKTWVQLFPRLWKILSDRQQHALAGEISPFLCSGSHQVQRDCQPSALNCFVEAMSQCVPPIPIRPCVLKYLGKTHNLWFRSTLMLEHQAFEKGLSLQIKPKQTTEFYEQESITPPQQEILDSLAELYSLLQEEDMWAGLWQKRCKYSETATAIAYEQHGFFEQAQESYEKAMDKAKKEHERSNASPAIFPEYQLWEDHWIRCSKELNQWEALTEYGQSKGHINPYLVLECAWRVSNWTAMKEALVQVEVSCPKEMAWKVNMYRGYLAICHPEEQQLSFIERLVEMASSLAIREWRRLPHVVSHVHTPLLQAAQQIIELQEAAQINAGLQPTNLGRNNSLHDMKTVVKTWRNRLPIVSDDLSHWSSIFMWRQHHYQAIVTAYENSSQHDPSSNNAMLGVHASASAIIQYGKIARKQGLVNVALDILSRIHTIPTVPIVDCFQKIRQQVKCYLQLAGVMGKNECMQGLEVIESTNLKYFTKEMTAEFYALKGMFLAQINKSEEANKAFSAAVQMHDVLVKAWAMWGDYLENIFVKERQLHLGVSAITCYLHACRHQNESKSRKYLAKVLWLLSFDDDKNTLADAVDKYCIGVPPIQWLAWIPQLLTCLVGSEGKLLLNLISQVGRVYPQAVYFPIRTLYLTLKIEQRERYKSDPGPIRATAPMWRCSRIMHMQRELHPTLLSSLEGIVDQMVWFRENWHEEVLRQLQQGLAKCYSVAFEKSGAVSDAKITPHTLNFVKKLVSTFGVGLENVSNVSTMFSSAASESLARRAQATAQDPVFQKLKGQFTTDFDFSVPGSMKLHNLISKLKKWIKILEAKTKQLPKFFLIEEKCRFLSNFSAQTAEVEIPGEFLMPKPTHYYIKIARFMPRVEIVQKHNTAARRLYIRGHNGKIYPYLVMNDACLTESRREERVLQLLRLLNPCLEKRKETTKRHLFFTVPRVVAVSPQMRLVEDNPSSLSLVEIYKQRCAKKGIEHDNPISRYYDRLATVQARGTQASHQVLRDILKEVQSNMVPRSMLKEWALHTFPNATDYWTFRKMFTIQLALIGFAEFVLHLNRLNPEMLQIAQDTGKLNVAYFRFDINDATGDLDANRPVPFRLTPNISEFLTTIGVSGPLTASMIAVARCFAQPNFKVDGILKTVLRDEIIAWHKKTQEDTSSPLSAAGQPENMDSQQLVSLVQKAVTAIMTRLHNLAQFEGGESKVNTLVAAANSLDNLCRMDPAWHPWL

- pIC50 (MYC:TRRAP complexes): 5.43
- concentration that inhibits MYC:TRRAP complex formation (MYC:TRRAP interaction; FIG. 25, 26): 3 to 5 µM
- % Inhibition 10 uM (MYC:TRRAP interaction; Table 2, compounds with >80% similarity to compound 10 (NSC657456), 10 uM): 39.63%
- increase in activity from NSC657456 (MYC:TRRAP interaction; compared with NSC657456): ~ 10 fold
- pIC50 (MYC:TRRAP interaction; in cells, in-cell luminescence complementation assay, normalized to MYC and TRRAP protein levels, FIG. 26A, read-out: IC50 for the inhibition of MYC:TRRAP): 5.33
Compound: Oc1[nH]c2ccccc2c1/N=N/c1nc(-c2ccccc2)cs1 [Compound 1024, 3-[(4-phenyl-1,3-thiazol-2-yl)diazenyl]-1H-indol-2-ol]
